Experimental data: patent publication US9751846B2, “Method for producing 1,4-benzoxazine compound” (MITSUBISHI TANABE PHARMA CORPORATION, priority 2012, dated 2017)
Entries after “also recorded” stand apart in the source; their conditions may differ.

Legend:
[1] = stability of the crystal in a formulation; format: physicochemical
[2] = stability of the crystal form (transition by heating, thermostability); format: physicochemical; conditions: for stability of the crystal: general statement
[3] = hygroscopicity of the crystal form; format: physicochemical
mutagenicity (AMES test) = format: cell-based

| Compound | stability of the crystal [2] | hygroscopicity [3] | further results |
| --- | --- | --- | --- |
| CC1(C)Oc2cc(NS(C)(=O)=O)ccc2N(c2ccc(F)cc2)C1=O [Form A crystal, N-[4-(4-fluorophenyl)-2,2-dimethyl-3-oxo-3,4-dihydro-2H-1,4-benzoxazin-7-yl]methanesulfonamide] | highly stable | low hygroscopicity; also recorded: non-hygroscopic | stability in a formulation [1]: high stability in a formulation; also recorded: highly stable in a formulation; transition to amorphous state or other crystal form by heating ([2]; heating): hardly makes a transition to other crystal form by heating; also recorded: does not transform to an amorphous state or other crystal form |
| CC1(C)Oc2cc(N)ccc2N(c2ccc(F)cc2)C1=O [intermediate (2), 7-amino-4-(4-fluorophenyl)-2,2-dimethyl-2H-1,4-benzoxazin-3(4H)-one] |  |  | mutagenicity by the AMES test (mutagenicity (AMES test); synthetic intermediate of the Patent Literature 1 route): strong mutagenicity |
| CC1(C)Oc2cc(N(S(C)(=O)=O)S(C)(=O)=O)ccc2N(c2ccc(F)cc2)C1=O [compound [c], N-[4-(4-fluorophenyl)-2,2-dimethyl-3-oxo-3,4-dihydro-2H-1,4-benzoxazin-7-yl]-N-(methylsulfonyl)methanesulfonamide] |  |  | mutagenicity (mutagenicity (AMES test); test not named at this place, synthetic intermediate of the new route): lower mutagenicity |

Now from value to compound, other results behind:

| stability of the crystal [2] | Compound | hygroscopicity [3] | further results |
| --- | --- | --- | --- |
| highly stable | CC1(C)Oc2cc(NS(C)(=O)=O)ccc2N(c2ccc(F)cc2)C1=O [Form C crystal, N-[4-(4-fluorophenyl)-2,2-dimethyl-3-oxo-3,4-dihydro-2H-1,4-benzoxazin-7-yl]methanesulfonamide] |  |  |
| highly stable | CC1(C)Oc2cc(NS(C)(=O)=O)ccc2N(c2ccc(F)cc2)C1=O [Form B crystal, N-[4-(4-fluorophenyl)-2,2-dimethyl-3-oxo-3,4-dihydro-2H-1,4-benzoxazin-7-yl]methanesulfonamide] | low hygroscopicity | thermostability ([2]; as compared to the Form D crystal of Patent Literature 1): higher thermostability |
